Results published in US11802120B2, “Fused cyclic urea derivatives as CRHR2 antagonist” (RaQualia Pharma Inc., priority 2018, dated 2023).

Molecular target: T1, human CRHR2-alpha (Homo sapiens, UniProt Q13324)
T1 sequence (Q13324 1-411): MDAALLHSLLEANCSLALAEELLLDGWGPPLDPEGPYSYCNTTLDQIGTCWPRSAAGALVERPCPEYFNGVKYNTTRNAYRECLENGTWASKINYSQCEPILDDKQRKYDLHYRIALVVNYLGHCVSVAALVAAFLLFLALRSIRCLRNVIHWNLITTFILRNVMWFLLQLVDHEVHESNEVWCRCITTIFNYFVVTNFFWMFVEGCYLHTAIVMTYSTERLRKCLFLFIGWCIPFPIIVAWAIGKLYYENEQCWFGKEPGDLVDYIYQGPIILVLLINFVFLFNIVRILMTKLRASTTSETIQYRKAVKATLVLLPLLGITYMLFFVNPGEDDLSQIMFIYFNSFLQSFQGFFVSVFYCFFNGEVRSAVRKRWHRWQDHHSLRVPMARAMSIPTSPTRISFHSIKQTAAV
Assay: cAMP functional assay for human CRHR2 (LANCE Ultra cAMP, TR-FRET)
Assay type: cell-based
Details: CHO-K1 cells expressing human CRHR2-alpha, agonist human urocortin2 at EC80, cAMP; read-out: IC50 against CRHR2
Outline: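 CHO-K1 cells stably expressing each receptor, serum-starved and cryopreserved, were preincubated with compound 30 min at 25° C in HBSS buffer with 0.5 mM IBMX, pH 7.4, then stimulated 30 min with EC80 agonist (urocortin2 for CRHR2, CRF for CRHR1). cAMP read by TR-FRET; IC50 from percent-inhibition curves.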

Row | SMILES | IC50 [nM]
1 | O=C(N[C@H]1CC[C@H](Cn2c(=O)n(-c3cnc4ccccc4c3)c3ccccc32)CC1)c1cc(Cl)cnc1C(F)(F)F [Example 352, 5-chloro-N-((1r,4r)-4-((2-oxo-3-(quinolin-3-yl)-2,3-dihydro-1H-benzo[d]imidazol-1-yl)methyl)cyclo-hexyl)-2-(trifluoromethyl) nicotinamide] | < 300
2 | Cc1ncc(Cl)cc1C(=O)N[C@H]1CC[C@H](Cn2c(=O)n(-c3ccc(-c4cn[nH]c4)nc3)c3ccccc32)CC1 [Example 203, N-((1r,4r)-4-((3-(6-(1H-pyrazol-4-yl)pyridin-3-yl)-2-oxo-2,3-dihydro-1H-benzo[d]imidazol-1-yl)methyl)cyclohexyl)-5-chloro-2-methylnicotinamide] | < 300
3 | Cc1ncc(Cl)cc1C(=O)N[C@H]1CC[C@H](Cn2c(=O)n(CC(=O)c3ccc(C#N)cc3)c3ccccc32)CC1 [Example 13, 5-chloro-N-((1r,4r)-4-((3-(2-(4-cyanophenyl)-2-oxoethyl)-2-oxo-2,3-dihydro-1H-benzo[d]imidazol-1-yl)methyl)cyclohexyl)-2-methylnicotinamide] | < 300
4 | Cc1ncc(Cl)cc1C(=O)N[C@H]1CC[C@H](Cn2c(=O)n(-c3ccc4c(Cl)n[nH]c4c3)c3ccccc32)CC1 [Example 210, 5-chloro-N-((1r,4r)-4-((3-(3-chloro-1H-indazol-6-yl)-2-oxo-2,3-dihydro-1H-benzo[d]imidazol-1-yl)methyl)cyclohexyl)-2-methylnicotinamide] | < 300
5 | Cc1ncc(Cl)cc1C(=O)N[C@H]1CC[C@H](Cn2c(=O)n(-c3ccc(C(=O)NC4CC4)nc3)c3ccccc32)CC1 [Example 151, 5-(3-(((1r,4r)-4-(5-chloro-2-methylnicotinamido)cyclo-hexyl)methyl)-2-oxo-2,3-dihydro-1H-benzo[d]imidazol-1-yl)-N-cyclopropyl-picolinamide] | < 300
6 | Cc1ncc(Cl)cc1C(=O)N[C@H]1CC[C@H](Cn2c(=O)n(-c3ccc4c(=O)[nH]cnc4c3)c3ccccc32)CC1 [Example 305, 5-chloro-2-methyl-N-((1r,4r)-4-((2-oxo-3-(4-oxo-3,4-dihydroquinazolin-7-yl)-2,3-dihydro-1H-benzol[d]imidazol-1-yl)methyl)cyclohexyl)nicotinamide] | < 300
7 | Cc1ncc(Cl)cc1C(=O)N[C@H]1CC[C@H](Cn2c(=O)n(-c3cnc4c(C)n[nH]c4c3)c3ccccc32)CC1 [Example 172, 5-chloro-2-methyl-N-((1r,4r)-4-((3-(3-methyl-1H-pyrazolo[4,3-b]pyridin-6-yl)-2-oxo-2,3-dihydro-1H-benzo[d]imidazol-1-yl)methyl)cyclohexyl)nicotinamide] | < 300
8 | COc1ccc(C#N)c(-n2c(=O)n(C[C@H]3CC[C@H](NC(=O)c4cc(Cl)cnc4C)CC3)c3ccccc32)c1 [Example 259, 5-chloro-N-((1r,4r)-4-((3-(2-cyano-5-methoxyphenyl)-2-oxo-2,3-dihydro-1H-benzo [d]imidazol-1-yl)methyl)cyclo-hexyl)-2-methylnicotinamide] | < 300
9 | CC(=O)N1CCc2cc(-n3c(=O)n(C[C@H]4CC[C@H](NC(=O)c5cc(Cl)cnc5C)CC4)c4ccccc43)cnc21 [Example 155, N-((1r,4r)-4-((3-(1-acetyl-2,3-dihydro-1H-pyrrolo[2,3-b]pyridin-5-yl)-2-oxo-2,3-dihydro-1H-benzo[d]imidazol-1-yl)methyl)cyclohexyl)-5-chloro-2-methylnicotinamide] | < 300
10 | COCc1ncc(Cl)cc1C(=O)N[C@H]1CC[C@H](Cn2c(=O)n(-c3ccc(C)nc3)c3ccccc32)CC1 [Example 329, 5-chloro-2-(methoxymethyl)-N-((1r,4r)-4-((3-(6-methyl-pyridin-3-yl)-2-oxo-2,3-dihydro-1H-benzo[d]imidazol-1-yl)methyl)cyclohexyl) nicotinamide] | < 300
11 | CNC(=O)c1ccc(-n2c(=O)n(C[C@H]3CC[C@H](NC(=O)c4cc(Cl)cnc4C)CC3)c3ccc(OC)cc32)cn1 [Example 258, 5-(3-(((1r,4r)-4-(5-chloro-2-methylnicotinamido)cyclo-hexyl)methyl)-6-methoxy-2-oxo-2,3-dihydro-1H-benzo [d]imidazol-1-yl)-N-methylpicolinamide] | < 300
12 | Cc1ncc(Cl)cc1C(=O)N[C@H]1CC[C@H](Cn2c(=O)n(-c3cnc4ccccc4c3)c3cccnc32)CC1 [Example 359, 5-chloro-2-methyl-N-((1r,4r)-4-((2-oxo-1-(quinolin-3-yl)-1H-imidazo[4,5-b]pyridin-3(2H)-yl)methyl)cyclohexyl) nicotinamide] | < 300

Further lines, results first:

Row | IC50 [nM] | SMILES
13 | < 300 | CCC(=O)Nc1ccc(-n2c(=O)n(C[C@H]3CC[C@H](NC(=O)c4cc(Cl)cnc4C)CC3)c3ccccc32)cn1 [Example 479, 5-chloro-2-methyl-N-((1r,4r)-4-((2-oxo-3-(6-propionamidopyridin-3-yl)-2,3-dihydro-1H-benzo[d]imidazol-1-yl)methyl)cyclohexyl)nicotinamide]
14 | < 300 | CN1CCN(c2cccc(-n3c(=O)n(C[C@H]4CC[C@H](NC(=O)c5cc(Cl)cnc5C(F)F)CC4)c4ccccc43)n2)C1=O [Example 774, 5-chloro-2-(difluoromethyl)-N-((1r,4r)-4-((3-(6-(3-methyl-2-oxoimidazolidin-1-yl)pyridin-2-yl)-2-oxo-2,3-dihydro-1H-benzo[d]imidazol-1-yl)methyl)cyclohexyl) nicotinamide]
15 | < 300 | O=C(N[C@H]1CC[C@H](Cn2c(=O)n(-c3ccc(N4CCCC4=O)nc3)c3ccccc32)CC1)c1cc(Cl)cnc1C(F)(F)F [Example 641, 5-chloro-N-((1r,4r)-4-((2-oxo-3-(6-(2-oxopyrrolidin-1-yl)pyridin-3-yl)-2,3-dihydro-1H-benzo[d]imidazol-1-yl)methyl)cyclohexyl)-2-(trifluoromethyl) nicotinamide]
16 | < 300 | CC(C)Nc1ccc(-n2c(=O)n(C[C@H]3CC[C@H](NC(=O)c4cc(Cl)cnc4C(F)F)CC3)c3ccccc32)cn1 [Example 514, 5-chloro-2-(difluoromethyl)-N-((1r,4r)-4-((3-(6-(iso-propylamino)pyridin-3-yl)-2-oxo-2,3-dihydro-1H-benzo [d]imidazol-1-yl)methyl)cyclohexyl)nicotinamide]
17 | < 300 | O=C(N[C@H]1CC[C@H](Cn2c(=O)n(-c3ccc(O[C@H]4CCOC4)nc3)c3ccccc32)CC1)c1cc(Cl)cnc1C(F)F [Example 430, 5-chloro-2-(difluoromethyl)-N-((1S,4r)-4-((2-oxo-3-(6-(((S)-tetrahydrofuran-3-yl)oxy)pyridin-3-yl)-2,3-dihydro-1H-benzo[d]imidazol-1-yl)methyl)cyclohexyl)nicotinamide]
18 | < 300 | CNC(=O)c1ccc(-n2c(=O)n(C[C@H]3CC[C@H](NC(=O)c4cc(Cl)cnc4C(F)F)CC3)c3cc(OC)ccc32)cn1 [Example 528, 5-(3-(((1r,4r)-4-(5-chloro-2-(difluoromethyl)nicotinamido)cyclohexyl)methyl)-5-methoxy-2-oxo-2,3-dihydro-1H-benzo [d]imidazol-1-yl)-N-methylpicolinamide]
19 | < 300 | COc1ccc(Cl)c(-n2c(=O)n(C[C@H]3CC[C@H](NC(=O)c4cc(Cl)cnc4C(F)F)CC3)c3ccncc32)c1 [Example 693, 5-chloro-N-((1r,4r)-4-((3-(2-chloro-5-methoxyphenyl)-2-oxo-2,3-dihydro-1H-imidazo [4,5-c]pyridin-1-yl)methyl)cyclohexyl)-2-(difluoromethyl) nicotinamide]
